Where two headings read alike, the source gives them in different places.
Test system: HBV viral load production from HepAD38 cells
Assay: Viral production from HepAD38 cells: viral load in supernatant by qPCR of the HBV core sequence
Format: cell-based
Conditions: 5 days incubation, qPCR of supernatant HBV DNA vs DMSO control, read-out: viral load lowering EC50 (Activity)
Procedure, shortened: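 Viral load was measured by qPCR of the HBV core region in supernatant, quantified against DNA standards and compared with DMSO wells. Cells (50,000/well, tetracycline withdrawn, 2% FBS) received compound from 10 μM final for 5 days; EC50 from four-parameter nonlinear regression.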

[1] = Hepatitis B virus, HePAD38, 120 h

Row | Compound | EC50 [1] | EC50
1 | CN1C(C(=O)Nc2ccc(F)c(Cl)c2)CC(C(=O)NCc2cnc(-c3ccc(C#N)cc3F)s2)NS1(=O)=O (single isomer, unassigned) [Compound 920-ISOMER-A, N3-(3-chloro-4-fluoro-phenyl)-N5-[[2-(4-cyano-2-fluoro-phenyl)thiazol-5-yl]methyl]-2-methyl-1,1-dioxo-1,2,6-thiadiazinane-3,5-dicarboxamide] | 100 to 10000 nM | –
2 | CN1C(C(=O)Nc2ccc(F)c(Cl)c2)CC(C(=O)NCc2cnc(-c3ccc(C#N)cc3F)s2)NS1(=O)=O (single isomer, unassigned) [Compound 920-ISOMER-B, N3-(3-chloro-4-fluoro-phenyl)-N5-[[2-(4-cyano-2-fluoro-phenyl)thiazol-5-yl]methyl]-2-methyl-1,1-dioxo-1,2,6-thiadiazinane-3,5-dicarboxamide] | – | < 50 nM
3 | CCN1CCC(Oc2ccc(-c3ncc(CNC(=O)C4CC(C(=O)Nc5ccc(F)c(Cl)c5)N(C)S(=O)(=O)N4)s3)cc2)CC1 (single isomer, unassigned) [Compound 921-ISOMER-A, N3-(3-chloro-4-fluoro-phenyl)-N5-[[2-[4-[(1-ethyl-4-piperidyl)oxy]phenyl]thiazol-5-yl]methyl]-2-methyl-1,1-dioxo-1,2,6-thiadiazinane-3,5-dicarboxamide] | < 50 nM | –
4 | CCN1CCC(Oc2ccc(-c3ncc(CNC(=O)C4CC(C(=O)Nc5ccc(F)c(Cl)c5)N(C)S(=O)(=O)N4)s3)cc2)CC1 (single isomer, unassigned) [Compound 921-ISOMER-B, N3-(3-chloro-4-fluoro-phenyl)-N5-[[2-[4-[(1-ethyl-4-piperidyl)oxy]phenyl]thiazol-5-yl]methyl]-2-methyl-1,1-dioxo-1,2,6-thiadiazinane-3,5-dicarboxamide] | – | 50 to 100 nM
5 | CN1C(C(=O)Nc2ccc(F)c(Cl)c2)CC(C(=O)NCc2cnc(-c3ccc(OCCN4CCCCC4)cc3)s2)NS1(=O)=O (single isomer, unassigned) [Compound 922-ISOMER-A, N3-(3-chloro-4-fluoro-phenyl)-2-methyl-1,1-dioxo-N5-[[2-[4-[2-(1-piperidyl)ethoxy]phenyl]thiazol-5-yl]methyl]-1,2,6-thiadiazinane-3,5-dicarboxamide] | 100 to 10000 nM | –
6 | CN1C(C(=O)Nc2ccc(F)c(Cl)c2)CC(C(=O)NCc2cnc(-c3ccc(O)cc3)s2)NS1(=O)=O (single isomer, unassigned) [Compound 924-ISOMER-B, N3-(3-chloro-4-fluoro-phenyl)-N5-[[2-(4-hydroxyphenyl)thiazol-5-yl]methyl]-2-methyl-1,1-dioxo-1,2,6-thiadiazinane-3,5-dicarboxamide] | < 50 nM | –
7 | CN1C(C(=O)Nc2ccc(F)c(Cl)c2)CC(C(=O)NCc2cnc(-c3ccc(OCCCN4CCSCC4)cc3)s2)NS1(=O)=O (single isomer, unassigned) [Compound 925-ISOMER-A, N3-(3-chloro-4-fluoro-phenyl)-2-methyl-1,1-dioxo-N5-[[2-[4-(3-thiomorpholinopropoxy)phenyl]thiazol-5-yl]methyl]-1,2,6-thiadiazinane-3,5-dicarboxamide] | < 50 nM | –
8 | CN1C(C(=O)Nc2ccc(F)c(Cl)c2)CC(C(=O)NCc2cnc(-c3ccc(OCCCN4CCSCC4)cc3)s2)NS1(=O)=O (single isomer, unassigned) [Compound 925-ISOMER-B, N3-(3-chloro-4-fluoro-phenyl)-2-methyl-1,1-dioxo-N5-[[2-[4-(3-thiomorpholinopropoxy)phenyl]thiazol-5-yl]methyl]-1,2,6-thiadiazinane-3,5-dicarboxamide] | – | 100 to 10000 nM
9 | CN1C(C(=O)N(Cc2cnc(-c3cscn3)s2)c2ccc(F)c(Cl)c2)CC(C(N)=O)NS1(=O)=O (single isomer, unassigned) [Compound 929-ISOMER-A, N3-(3-chloro-4-fluoro-phenyl)-2-methyl-1,1-dioxo-N-[(2-thiazol-4-ylthiazol-5-yl)methyl]-1,2,6-thiadiazinane-3,5-dicarboxamide] | 100 to 10000 nM | –
10 | CN1C(C(=O)Nc2ccc(F)c(Cl)c2)CC(C(=O)NCc2cnc(-c3cscn3)s2)NS1(=O)=O (single isomer, unassigned) [Compound 929-ISOMER-B, N3-(3-chloro-4-fluoro-phenyl)-2-methyl-1,1-dioxo-N5-[(2-thiazol-4-ylthiazol-5-yl)methyl]-1,2,6-thiadiazinane-3,5-dicarboxamide] | < 50 nM | –
11 | CN1C(C(=O)Nc2ccc(F)c(Cl)c2)CC(C(=O)NCc2ncc(-c3ccccc3)s2)NS1(=O)=O (single isomer, unassigned) [Compound 931-ISOMER-A, N3-(3-chloro-4-fluoro-phenyl)-2-methyl-1,1-dioxo-N5-[(5-phenylthiazol-2-yl)methyl]-1,2,6-thiadiazinane-3,5-dicarboxamide] | 100 to 10000 nM | –
12 | CN1C(C(=O)Nc2ccc(F)c(Cl)c2)CC(C(=O)NCc2ncc(-c3ccccc3)s2)NS1(=O)=O (single isomer, unassigned) [Compound 931-ISOMER-B, N3-(3-chloro-4-fluoro-phenyl)-2-methyl-1,1-dioxo-N5-[(5-phenylthiazol-2-yl)methyl]-1,2,6-thiadiazinane-3,5-dicarboxamide] | – | < 50 nM
13 | COc1ccc(-c2cnc(CNC(=O)C3CC(C(=O)Nc4ccc(F)c(Cl)c4)N(C)S(=O)(=O)N3)s2)cc1 (single isomer, unassigned) [Compound 932-ISOMER-A, N3-(3-chloro-4-fluoro-phenyl)-N5-[[5-(4-methoxyphenyl)thiazol-2-yl]methyl]-2-methyl-1,1-dioxo-1,2,6-thiadiazinane-3,5-dicarboxamide] | 100 to 10000 nM | –
14 | COc1ccc(-c2cnc(CNC(=O)C3CC(C(=O)Nc4ccc(F)c(Cl)c4)N(C)S(=O)(=O)N3)s2)cc1 (single isomer, unassigned) [Compound 932-ISOMER-B, N3-(3-chloro-4-fluoro-phenyl)-N5-[[5-(4-methoxyphenyl)thiazol-2-yl]methyl]-2-methyl-1,1-dioxo-1,2,6-thiadiazinane-3,5-dicarboxamide] | – | < 50 nM
15 | CN(C)CC(C)(C)COc1ccc(-c2ncc(CNC(=O)C3CC(C(=O)Nc4ccc(F)c(Cl)c4)N(C)S(=O)(=O)N3)s2)cc1 (single isomer, unassigned) [Compound 943-ISOMER-A, N3-(3-chloro-4-fluoro-phenyl)-N5-[[2-[4-[3-(dimethylamino)-2,2-dimethyl-propoxy]phenyl]thiazol-5-yl]methyl]-2-methyl-1,1-dioxo-1,2,6-thiadiazinane-3,5-dicarboxamide] | < 50 nM | –
16 | CN(C)CC(C)(C)COc1ccc(-c2ncc(CNC(=O)C3CC(C(=O)Nc4ccc(F)c(Cl)c4)N(C)S(=O)(=O)N3)s2)cc1 (single isomer, unassigned) [Compound 943-ISOMER-B, N3-(3-chloro-4-fluoro-phenyl)-N5-[[2-[4-[3-(dimethylamino)-2,2-dimethyl-propoxy]phenyl]thiazol-5-yl]methyl]-2methyl-1,1-dioxo-1,2,6-thiadiazinane-3,5-dicarboxamide] | – | 100 to 10000 nM
17 | CN1C(C(=O)Nc2ccc(F)c(Cl)c2)CC(C(=O)NCc2cnc(-c3ccc(C#CCN4CCCCC4)cc3)s2)NS1(=O)=O (single isomer, unassigned) [Compound 946-ISOMER-A, N3-(3-chloro-4-fluoro-phenyl)-2-methyl-1,1-dioxo-N5-[[2-[4-[3-(1-piperidyl)prop-1-ynyl]phenyl]thiazol-5-yl]methyl]-1,2,6-thiadiazinane-3,5-dicarboxamide] | < 50 nM | –
18 | CN1C(C(=O)Nc2ccc(F)c(Cl)c2)CC(C(=O)NCc2cnc(-c3ccc(C#CCN4CCCCC4)cc3)s2)NS1(=O)=O (single isomer, unassigned) [Compound 946-ISOMER-B, N3-(3-chloro-4-fluoro-phenyl)-2-methyl-1,1-dioxo-N5-[[2-[4-[3-(1-piperidyl)prop-1-ynyl]phenyl]thiazol-5-yl]methyl]-1,2,6-thiadiazinane-3,5-dicarboxamide] | – | 100 to 10000 nM
19 | CN1C(C(=O)Nc2ccc(F)c(Cl)c2)CC(C(=O)NC2CCCc3nc(-c4ccc(OCCN5CCCCC5)cc4)sc32)NS1(=O)=O (single isomer, unassigned) [Compound 948-ISOMER-A] | < 50 nM | –
20 | CN1C(C(=O)Nc2ccc(F)c(Cl)c2)CC(C(=O)NC2CCCc3nc(-c4ccc(OCCN5CCCCC5)cc4)sc32)NS1(=O)=O (single isomer, unassigned) [Compound 948-ISOMER-B, N3-(3-chloro-4-fluoro-phenyl)-2-methyl-1,1-dioxo-N5-[2-[4-[2-(1-piperidyl)ethoxy]phenyl]-4,5,6,7-tetrahydro-1,3-benzothiazol-7-yl]-1,2,6-thiadiazinane-3,5-dicarboxamide] | – | 100 to 10000 nM
21 | CN1C(C(=O)Nc2ccc(F)c(Cl)c2)CC(C(=O)NCc2csc(-c3ccc(OCCN4CCCCC4)cc3)n2)NS1(=O)=O (single isomer, unassigned) [Compound 957-ISOMER-A, N3-(3-chloro-4-fluoro-phenyl)-2-methyl-1,1-dioxo-N5-[[2-[4-[2-(1-piperidyl)ethoxy]phenyl]thiazol-4-yl]methyl]-1,2,6-thiadiazinane-3,5-dicarboxamide] | < 50 nM | –
22 | CN1C(C(=O)Nc2ccc(F)c(Cl)c2)CC(C(=O)NCc2csc(-c3ccc(OCCN4CCCCC4)cc3)n2)NS1(=O)=O (single isomer, unassigned) [Compound 957-ISOMER-B, N3-(3-chloro-4-fluoro-phenyl)-2-methyl-1,1-dioxo-N5-[[2-[4-[2-(1-piperidyl)ethoxy]phenyl]thiazol-4-yl]methyl]-1,2,6-thiadiazinane-3,5-dicarboxamide] | – | 100 to 10000 nM
23 | CN1C(C(=O)Nc2ccc(F)c(Cl)c2)CC(C(=O)NC2CCN(c3cc(Cl)ccn3)CC2)NS1(=O)=O (single isomer, unassigned) [Compound 974-ISOMER-A, N3-(3-chloro-4-fluoro-phenyl)-N5-[1-(4-chloro-2-pyridyl)-4-piperidyl]-2-methyl-1,1-dioxo-1,2,6-thiadiazinane-3,5-dicarboxamide] | < 50 nM | –
